Reference: patent US10457677B2 (priority 2015, dated 2019)
Like-named read-outs stand apart in the source and are kept apart here.

What was measured:
PI3K (p120γ) (human) = PI3K (p120γ) (human) (Homo sapiens (Human), UniProt P48736); assay: PI3K (p120γ) (human), non-radioactive assay (HTRF); type: biochemical; conditions: for ratio IC50 (ATM) vs PI3Kgamma, selectivity with respect to PI3Kgamma: as printed:; for IC50: read-out: IC50 (PI3Kgamma)
Description: PI3K (p120γ) (Human), Non-radioactive Assay
(§1) PI3K (p120γ) (human) was incubated in an assay buffer comprising 10 μM phosphati-dylinositol 4,5-bisphosphate and MgATP (concentration as necessary). The reaction was initiated by addition of MgATP solution. After an incubation time of 30 min at room temperature, the reaction was stopped by addition of a solution consisting of EDTA and biotinylated phosphatidylinositol 3,4,5-trisphosphate. Finally, the detection buffer, consisting of a europium-labelled anti-GST monoclonal antibody, a GST-labelled GRP1 PH domain and streptavidin allophycocyanin, was added. The plate was read out via homogeneous time-resolved fluorescence (HTRF) and the corresponding signals were evaluated via the formula HTRF=10000×(Em665nm/Em620nm). • MgATP=magnesium 5′-O—[hydroxy({[(hydroxyphosphinato)oxy]phosphinato}oxy)phosphoryl]adenosine • MgCl2=magnesium dichloride • EGTA=ethylene glycol bis(aminoethyl ether) N,N,N′,N′-tetraacetic acid • Tween 20=polysorbate 20 Medicament/pharmaceutical Composition

[1] = system: phosphorylation of CHK2 (phospho-Thr68) in HCT116 cells; assay: Cellular pCHK2 assay: bleomycin-induced phosphorylation of CHK2 (phospho-Thr68), immunofluorescence high-content analysis; type: cell-based, human; conditions: Homo sapiens, HCT-116, 4 h, read-out: IC50 (pCHK2)
Source text: For the identification of substances which inhibit the phosphorylation of the protein kinase CHK2 at the amino acid threonine 68, an immunofluorescence-based “high content” analysis assay was used in HCT116 cells.
In vitro cell-based immunofluorescence assay for the identification of inhibitors of bleomycin-induced phosphorylation of CHK2 (phospho-Thr68) in the human colon carcinoma cell line HCT116:
HCT116 cells are sown out in a defined cell density in 384-well plates in culture medium (DMEM high glucose, 2 mM GlutaMax, 1 mM Na pyruvate, 10% FCS) and incubated overnight at 37° C. and 10% of CO2. On the following day, the test substances are added in a defined concentration range (1 nM to 30 μM) in combination with 10 μM bleomycin, where the concentration of the solvent DMSO is kept constant at 0.5%. […] Parallel staining of DNA with propidium iodide enables determination of the cell count. The pCHK2 signal is detected using a high-content imager (Molecular Devices IMX Ultra) and automatic image analysis using the MetaXpress software belonging to the instrument. The number of cell nuclei which have a pCHK2 signal above a defined background is determined.

PI3K p110β/p85α (human) = PI3K p110β/p85α (human) (Homo sapiens (Human), UniProt P42338); assay: PI3K p110β/p85α (human), non-radioactive assay (HTRF); type: biochemical; conditions: IC50 (ATM) at least 2000 times higher compared with IC50 (PI3Kbeta)
Description: PI3K p110β/p85α (Human), Non-radioactive Assay
as §1, with “p110β/p85α” for “(p120γ)”, “HTRF=10000×(Em665nm/Em620nm).” for “HTRF=10000×(Em665nm/Em620nm). • MgATP=magnesium 5′-O—[hydroxy({[(hydroxyphosphinato)oxy]phosphinato}oxy)phosphoryl]adenosine • MgCl2=magnesium dichloride • EGTA=ethylene glycol bis(aminoethyl ether) N,N,N′,N′-tetraacetic acid • Tween 20=polysorbate 20 Medicament/pharmaceutical Composition”

[2] = target: purified human recombinant ATM (ataxia telangiectasia mutated), full length (Homo sapiens (Human), UniProt Q13315); assay: ATM kinase assay - determination of ATM inhibition (IC50 ATM), TR-FRET; type: biochemical
Procedure, shortened: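 Full-length enzyme, expressed in a mammalian cell line, pre-incubated 15 min with inhibitor in 25 mM HEPES pH 8.0, 10 mM Mg(CH3COO)2, 1 mM MnCl2, 0,1% BSA, 0,01% Brij 35, 5 mM DTT. Full-length cmyc-p53 (Sf21-expressed) and ATP then added, 30-35 min at 22° C. EDTA stop; p53 S15 phosphorylation read by TR-FRET antibodies.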

PI3K p110δ/p85α (human) = PI3K p110δ/p85α (human) (Homo sapiens (Human), UniProt O00329); assay: PI3K p110δ/p85α (human), non-radioactive assay (HTRF); type: biochemical; conditions: for ratio IC50 (ATM) vs PI3Kdelta, selectivity with respect to PI3Kdelta: as printed:; for IC50: read-out: IC50 (PI3Kdelta)
Description: PI3K p110δ/p85α (Human), Non-radioactive Assay
as §1, with “p110δ/p85α” for “(p120γ)”, “HTRF=10000×(Em665nm/Em620nm).” for “HTRF=10000×(Em665nm/Em620nm). • MgATP=magnesium 5′-O—[hydroxy({[(hydroxyphosphinato)oxy]phosphinato}oxy)phosphoryl]adenosine • MgCl2=magnesium dichloride • EGTA=ethylene glycol bis(aminoethyl ether) N,N,N′,N′-tetraacetic acid • Tween 20=polysorbate 20 Medicament/pharmaceutical Composition”

PI3K p110α/p85α (human) = PI3K p110α/p85α (human) (Homo sapiens (Human), UniProt P42336); assay: PI3K p110α/p85α (human), non-radioactive assay (HTRF); type: biochemical; conditions: for ratio IC50 (ATM) vs PI3Kalpha, selectivity with respect to PI3Kalpha: as printed:; for IC50: read-out: IC50 (PI3Kalpha)
Description: PI3K p110α/p85α (Human), Non-radioactive Assay
PI3K p110α/p85α (human) was incubated in an assay buffer comprising 10 μM phosphati-dylinositol 4,5-bisphosphate and MgATP (concentration as necessary). The reaction was initiated by addition of MgATP solution. After incubation at room temperature for 40 minutes, the reaction was stopped by addition of a solution consisting of EDTA and biotinylated phosphatidylinositol 3,4,5-trisphosphate. Finally, the detection buffer, consisting of a europium-labelled anti-GST monoclonal antibody, a GST-labelled GRP1 PH domain and streptavidin allophycocyanin, was added. The plate was read out via homogeneous time-resolved fluorescence (HTRF) and the corresponding signals were evaluated via the formula HTRF=10000×(Em665nm/Em620nm).

mTOR (human) = mTOR (human) (Homo sapiens (Human), UniProt P42345); assay: mTOR (human) kinase assay, [γ-33P-ATP] filter assay; type: biochemical
Description: Furthermore, the effect, in particular inhibition, of other kinases and thus the selectivity of the compounds according to the invention can be determined with the aid of the following assay:
mTOR (human) was incubated with 50 mM HEPES pH 7.5, 1 mM EGTA, 0.01% Tween 20, 2 mg/ml of the substrate, 3 mM MnCl2 and [γ-^33P-ATP] (specific activity approximately 500 cpm/pmol, concentration as necessary). The reaction was initiated by addition of MgATP solution. After incubation at room temperature for 40 minutes, the reaction was stopped by addition of 3% phosphoric acid. 10 μl of the reaction solution were then transferred dropwise onto a P30 filtermat and washed three times for 5 min in 75 mM phosphoric acid and once in methanol, dried and evaluated by means of liquid scintillation counting.

Sequence of PI3K p110α/p85α (human) (P42336 whole entry): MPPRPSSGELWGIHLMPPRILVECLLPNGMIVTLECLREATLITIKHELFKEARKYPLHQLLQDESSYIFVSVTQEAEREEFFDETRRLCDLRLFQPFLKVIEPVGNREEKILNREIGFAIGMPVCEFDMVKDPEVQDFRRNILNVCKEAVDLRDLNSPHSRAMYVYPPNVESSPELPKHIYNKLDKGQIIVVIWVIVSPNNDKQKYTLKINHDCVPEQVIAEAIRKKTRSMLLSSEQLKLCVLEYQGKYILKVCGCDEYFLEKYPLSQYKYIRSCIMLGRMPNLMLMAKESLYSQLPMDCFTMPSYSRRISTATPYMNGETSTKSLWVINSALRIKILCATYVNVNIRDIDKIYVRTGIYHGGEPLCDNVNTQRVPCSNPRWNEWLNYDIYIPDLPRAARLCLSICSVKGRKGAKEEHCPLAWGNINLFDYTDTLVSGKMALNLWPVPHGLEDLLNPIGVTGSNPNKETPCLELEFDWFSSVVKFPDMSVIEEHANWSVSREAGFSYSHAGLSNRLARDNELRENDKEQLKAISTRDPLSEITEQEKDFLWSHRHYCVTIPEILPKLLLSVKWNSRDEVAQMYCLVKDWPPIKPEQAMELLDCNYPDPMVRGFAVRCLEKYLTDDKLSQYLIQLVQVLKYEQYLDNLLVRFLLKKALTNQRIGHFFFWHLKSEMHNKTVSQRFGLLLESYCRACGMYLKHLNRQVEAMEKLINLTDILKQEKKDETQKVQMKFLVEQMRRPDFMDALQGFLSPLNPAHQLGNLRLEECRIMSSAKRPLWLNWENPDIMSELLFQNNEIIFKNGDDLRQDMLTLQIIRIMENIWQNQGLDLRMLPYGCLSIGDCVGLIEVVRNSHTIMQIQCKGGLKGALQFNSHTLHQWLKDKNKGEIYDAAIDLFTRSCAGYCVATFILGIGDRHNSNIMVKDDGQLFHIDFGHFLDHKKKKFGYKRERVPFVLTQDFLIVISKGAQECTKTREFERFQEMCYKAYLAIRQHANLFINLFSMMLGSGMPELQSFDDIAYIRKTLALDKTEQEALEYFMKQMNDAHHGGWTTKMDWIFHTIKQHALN
Sequence of PI3K p110α/p85α (human) (P27986 whole entry partner): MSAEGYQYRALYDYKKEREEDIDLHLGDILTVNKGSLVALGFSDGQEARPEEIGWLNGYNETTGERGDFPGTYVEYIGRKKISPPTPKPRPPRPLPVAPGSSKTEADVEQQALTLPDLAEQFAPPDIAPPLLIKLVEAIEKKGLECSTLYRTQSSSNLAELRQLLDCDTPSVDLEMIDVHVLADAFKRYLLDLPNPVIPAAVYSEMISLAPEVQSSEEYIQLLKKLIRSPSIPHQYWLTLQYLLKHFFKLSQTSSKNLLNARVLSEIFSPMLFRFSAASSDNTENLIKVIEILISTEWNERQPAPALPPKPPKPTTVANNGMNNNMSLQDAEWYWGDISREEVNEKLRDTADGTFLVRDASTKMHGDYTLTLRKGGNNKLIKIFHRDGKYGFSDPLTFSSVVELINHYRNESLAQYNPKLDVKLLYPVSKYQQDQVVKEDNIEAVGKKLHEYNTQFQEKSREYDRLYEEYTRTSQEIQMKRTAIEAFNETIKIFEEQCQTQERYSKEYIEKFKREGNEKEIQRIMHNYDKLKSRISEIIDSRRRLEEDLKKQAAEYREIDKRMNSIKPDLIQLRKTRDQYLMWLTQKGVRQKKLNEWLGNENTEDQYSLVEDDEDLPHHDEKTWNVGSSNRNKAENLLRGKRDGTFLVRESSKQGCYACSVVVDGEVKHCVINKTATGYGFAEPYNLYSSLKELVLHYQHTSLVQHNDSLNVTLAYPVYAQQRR
Sequence of PI3K (p120γ) (human) (P48736 whole entry): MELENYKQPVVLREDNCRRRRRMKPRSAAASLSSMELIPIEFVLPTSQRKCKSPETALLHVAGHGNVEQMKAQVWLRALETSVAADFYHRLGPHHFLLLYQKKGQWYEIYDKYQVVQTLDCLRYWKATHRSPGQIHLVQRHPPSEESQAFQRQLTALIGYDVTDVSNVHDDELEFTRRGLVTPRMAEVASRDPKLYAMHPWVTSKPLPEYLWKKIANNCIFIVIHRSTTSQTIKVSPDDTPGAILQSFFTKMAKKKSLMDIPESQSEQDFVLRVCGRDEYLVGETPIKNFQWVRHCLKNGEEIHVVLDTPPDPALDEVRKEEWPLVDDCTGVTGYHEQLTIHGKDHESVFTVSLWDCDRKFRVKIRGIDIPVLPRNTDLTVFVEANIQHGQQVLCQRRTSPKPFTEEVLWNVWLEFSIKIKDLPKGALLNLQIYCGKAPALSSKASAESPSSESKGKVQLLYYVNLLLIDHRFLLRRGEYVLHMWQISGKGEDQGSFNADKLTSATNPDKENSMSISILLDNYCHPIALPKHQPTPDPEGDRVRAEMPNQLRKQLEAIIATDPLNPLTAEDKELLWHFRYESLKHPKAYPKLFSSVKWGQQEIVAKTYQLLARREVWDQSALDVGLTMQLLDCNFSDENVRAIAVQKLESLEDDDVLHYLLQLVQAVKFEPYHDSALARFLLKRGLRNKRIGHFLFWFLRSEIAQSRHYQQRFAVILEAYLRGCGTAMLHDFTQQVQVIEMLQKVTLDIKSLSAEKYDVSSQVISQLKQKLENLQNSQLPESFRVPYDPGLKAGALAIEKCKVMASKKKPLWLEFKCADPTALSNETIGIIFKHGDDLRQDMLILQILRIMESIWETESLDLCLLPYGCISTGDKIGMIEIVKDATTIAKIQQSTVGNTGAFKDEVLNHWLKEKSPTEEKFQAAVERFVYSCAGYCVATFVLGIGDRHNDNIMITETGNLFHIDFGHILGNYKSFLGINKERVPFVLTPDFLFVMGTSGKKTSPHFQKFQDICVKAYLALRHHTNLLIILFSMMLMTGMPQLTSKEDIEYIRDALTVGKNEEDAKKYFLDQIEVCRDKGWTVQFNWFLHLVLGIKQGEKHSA
Sequence of PI3K p110δ/p85α (human) (O00329 whole entry): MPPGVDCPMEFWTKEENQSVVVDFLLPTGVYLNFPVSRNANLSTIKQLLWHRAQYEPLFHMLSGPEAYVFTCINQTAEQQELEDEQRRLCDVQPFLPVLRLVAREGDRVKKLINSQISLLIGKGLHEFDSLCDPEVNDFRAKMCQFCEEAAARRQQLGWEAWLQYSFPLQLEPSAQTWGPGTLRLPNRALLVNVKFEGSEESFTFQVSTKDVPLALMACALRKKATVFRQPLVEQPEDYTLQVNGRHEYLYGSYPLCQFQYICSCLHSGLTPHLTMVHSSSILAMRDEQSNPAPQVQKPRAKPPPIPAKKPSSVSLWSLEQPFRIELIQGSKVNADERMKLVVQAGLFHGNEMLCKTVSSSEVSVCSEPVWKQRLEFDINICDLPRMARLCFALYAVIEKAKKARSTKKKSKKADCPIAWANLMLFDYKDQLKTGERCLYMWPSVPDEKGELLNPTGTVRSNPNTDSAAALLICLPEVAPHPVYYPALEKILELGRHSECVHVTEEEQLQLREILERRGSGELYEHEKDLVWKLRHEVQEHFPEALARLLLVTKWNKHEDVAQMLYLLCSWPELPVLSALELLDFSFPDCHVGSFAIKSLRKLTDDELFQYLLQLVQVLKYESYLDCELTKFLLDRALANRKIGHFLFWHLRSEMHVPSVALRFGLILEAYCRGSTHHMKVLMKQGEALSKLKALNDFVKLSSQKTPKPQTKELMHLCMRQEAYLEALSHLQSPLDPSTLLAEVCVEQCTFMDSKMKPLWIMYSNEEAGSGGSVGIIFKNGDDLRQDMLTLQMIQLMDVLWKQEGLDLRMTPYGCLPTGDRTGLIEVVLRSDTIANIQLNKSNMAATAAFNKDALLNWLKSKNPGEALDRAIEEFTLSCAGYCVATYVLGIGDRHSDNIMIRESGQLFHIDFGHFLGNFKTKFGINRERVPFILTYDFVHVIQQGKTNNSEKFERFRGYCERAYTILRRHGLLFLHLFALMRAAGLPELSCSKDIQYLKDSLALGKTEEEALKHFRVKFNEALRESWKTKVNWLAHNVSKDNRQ
Sequence of PI3K p110δ/p85α (human) (P27986 whole entry partner): as the sequence (P27986 whole entry partner) above
Sequence of PI3K p110β/p85α (human) (P42338 whole entry): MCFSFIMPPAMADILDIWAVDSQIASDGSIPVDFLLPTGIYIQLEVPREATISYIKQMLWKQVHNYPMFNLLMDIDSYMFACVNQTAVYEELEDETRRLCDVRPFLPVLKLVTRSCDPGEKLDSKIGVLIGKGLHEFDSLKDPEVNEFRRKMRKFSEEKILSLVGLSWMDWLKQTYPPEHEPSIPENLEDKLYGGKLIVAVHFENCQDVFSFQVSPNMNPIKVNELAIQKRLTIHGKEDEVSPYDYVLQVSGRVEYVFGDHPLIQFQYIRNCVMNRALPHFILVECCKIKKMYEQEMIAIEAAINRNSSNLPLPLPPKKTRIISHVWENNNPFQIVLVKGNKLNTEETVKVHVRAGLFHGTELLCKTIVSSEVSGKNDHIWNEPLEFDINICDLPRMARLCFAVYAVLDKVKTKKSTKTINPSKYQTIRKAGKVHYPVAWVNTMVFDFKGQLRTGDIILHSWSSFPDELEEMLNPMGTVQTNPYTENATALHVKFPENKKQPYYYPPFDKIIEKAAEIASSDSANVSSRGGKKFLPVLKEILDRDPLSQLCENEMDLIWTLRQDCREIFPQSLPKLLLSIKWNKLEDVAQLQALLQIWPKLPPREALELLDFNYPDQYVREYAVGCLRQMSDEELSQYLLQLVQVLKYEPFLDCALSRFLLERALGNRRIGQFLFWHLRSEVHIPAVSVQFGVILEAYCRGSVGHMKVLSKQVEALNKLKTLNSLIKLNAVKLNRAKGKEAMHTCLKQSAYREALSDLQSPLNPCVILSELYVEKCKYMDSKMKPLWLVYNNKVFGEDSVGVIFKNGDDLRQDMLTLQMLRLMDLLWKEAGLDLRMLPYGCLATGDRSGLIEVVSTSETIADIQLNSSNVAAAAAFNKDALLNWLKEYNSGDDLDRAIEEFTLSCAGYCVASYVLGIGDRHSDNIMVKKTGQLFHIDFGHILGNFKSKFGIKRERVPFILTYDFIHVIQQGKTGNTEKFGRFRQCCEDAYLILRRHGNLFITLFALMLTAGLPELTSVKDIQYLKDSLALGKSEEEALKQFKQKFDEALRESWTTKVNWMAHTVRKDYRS
Sequence of PI3K p110β/p85α (human) (P27986 whole entry partner): as the sequence (P27986 whole entry partner) above

| SMILES | ratio IC50 (ATM) vs PI3Kgamma, selectivity with respect to PI3Kgamma (PI3K (p120γ) (human)) | IC50 [1] | fold selectivity for ATM over PI3Kbeta (IC50 PI3Kbeta / IC50 ATM) (PI3K p110β/p85α (human)) | IC50 ([2]; 10 μM ATP, substrate p53) | ratio IC50 (ATM) vs PI3Kdelta, selectivity with respect to PI3Kdelta (PI3K p110δ/p85α (human)) | ratio IC50 (ATM) vs PI3Kalpha, selectivity with respect to PI3Kalpha (PI3K p110α/p85α (human)) | IC50 (PI3K (p120γ) (human)) | IC50 (PI3K p110δ/p85α (human)) | IC50 (mTOR (human)) | IC50 [2] | IC50 (PI3K p110α/p85α (human)) | ratio IC50 (ATM) : IC50 (mTOR), selectivity with respect to mTOR (mTOR (human); as printed:) |
| --- | --- | --- | --- | --- | --- | --- | --- | --- | --- | --- | --- | --- |
| COc1cc2ncc3c(c2cc1-c1ccc2nc(C)[nH]c2c1)n(-c1c(F)cncc1OC)c(=O)n3C [compound 136, 1-(3-Fluoro-5-methoxy-pyridin-4-yl)-7-methoxy-3-methyl-8-(2-methyl-3H-benzoimidazol-5-yl)-1,3-dihydroimidazo[4,5-c]-quinolin-2-one] | at least 2000 times | < 200 nM | at least 2000 times | < 1 nM |  |  |  |  |  |  |  |  |
| COc1ccc(-c2cc3c(cc2OC)ncc2c3n(-c3cn(C)nc3F)c(=O)n2C)cn1 [compound 159, 1-(3-Fluoro-1-methyl-1H-pyrazol-4-yl)-7-methoxy-8-(6-methoxypyridin-3-yl)-3-methyl-1,3-dihydroimidazo-[4,5-c]quinolin-2-one] |  | 1000 to 2000 nM | at least 2000 times | < 10 nM |  |  |  |  |  |  |  |  |
| COc1cc2ncc3c(c2cc1-c1cnn(C)c1)n(-c1ncc(OCS(C)(=O)=O)cc1F)c(=O)n3C [compound 201, 1-(3-Fluoro-5-methyl-sulfonylmethoxypyridin-2-yl)-7-methoxy-3-methyl-8-(1-methyl-1H-pyrazol-4-yl)-1,3-dihydroimidazo[4,5-c]-quinolin-2-one] | at least 2000 times | < 200 nM | at least 2000 times | < 1 nM | at least 2000 times | at least 2000 times |  |  |  |  |  |  |
| COc1cc2ncc3[nH]c(=O)n(-c4ncc(F)cc4F)c3c2cc1-c1cn(C)nc1C [compound 108, 1-(3,5-Difluoropyridin-2-yl)-8-(1,3-dimethyl-1H-pyrazol-4-yl)-7-methoxy-1,3-dihydroimidazo[4,5-c]-quinolin-2-one] | at least 2000 times | 200 to 1000 nM | at least 2000 times | < 1 nM | at least 2000 times | at least 2000 times |  |  |  |  |  |  |
| COc1cc2ncc3c(c2cc1-c1cn(C)nc1C)n(-c1c(C)cncc1F)c(=O)n3C [Compound Example 39, 8-(1,3-Dimethyl-1H-pyrazol-4-yl)-1-(3-fluoro-5-methyl-pyridin-4-yl)-7-methoxy-3-methyl-1,3-dihydroimidazo-[4,5-c]quinolin-2-one] |  | 200 to 1000 nM |  | < 1 nM |  |  | > 30000 nM | > 30000 nM | > 30000 nM | < 1 nM | > 30000 nM |  |
| CCc1cncc(F)c1-n1c(=O)n(C)c2cnc3cc(OC)c(-c4cn[nH]n4)cc3c21 [compound 125, 1-(3-Ethyl-5-fluoropyridin-4-yl)-7-methoxy-3-methyl-8-(2H-1,2,3-triazol-4-yl)-1,3-dihydroimidazo[4,5-c] quinolin-2-one] | at least 2000 times | 200 to 1000 nM | at least 2000 times | < 1 nM | at least 2000 times | at least 2000 times |  |  |  |  |  |  |
| COc1cc2ncc3c(c2cc1-c1cnn(C)c1)n(-c1c(C)n[nH]c1C)c(=O)n3C [compound 118, 1-(3,5-Dimethyl-1H-pyrazol-4-yl)-7-methoxy-3-methyl-8-(1-methyl-1H-pyrazol-4-yl)-1,3-dihydroimidazo[4,5-c]-quinolin-2-one] |  | 200 to 1000 nM | at least 2000 times | < 10 nM |  |  |  |  |  |  |  | at least 2000 times |
| CCc1cncc(C)c1-n1c(=O)n(C)c2cnc3cc(OC)c(-c4cnn(C)c4)cc3c21 [Compound Example 54, 1-(3-Ethyl-5-methylpyridin-4-yl)-7-methoxy-3-methyl-8-(1-methyl-1H-pyrazol-4-yl)-1,3-dihydroimidazo[4,5-c]-quinolin-2-one] |  | 200 to 1000 nM |  | < 10 nM |  |  | > 30000 nM | > 30000 nM | > 30000 nM | < 10 nM | > 30000 nM |  |
| CCn1cc(-c2cc3c(cc2OC)ncc2c3n(-c3c(F)cncc3F)c(=O)n2C)cn1 [Compound Example 26, 1-(3,5-Difluoropyridin-4-yl)-8-(1-ethyl-1H-pyrazol-4-yl)-7-methoxy-3-methyl-1,3-dihydroimidazo[4,5-c] quinolin-2-one] |  | < 200 nM |  | < 1 nM |  |  | > 30000 nM | > 30000 nM | > 30000 nM | < 1 nM | > 30000 nM |  |
| COc1cc2ncc3c(c2cc1-c1cn[nH]c1)n(-c1ccncc1OC)c(=O)n3C [Compound Example 32, 7-Methoxy-1-(3-methoxy-pyridin-4-yl)-3-methyl-8-(1H-pyrazol-4-yl)-1,3-dihydroimidazo[4,5-c]-quinolin-2-one] |  | < 200 nM |  | < 10 nM |  |  | > 30000 nM | > 30000 nM | > 10000 nM | < 10 nM | > 30000 nM |  |
